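Abbreviation: GI50, concentration required for 50% inhibition of growth. TGI marks complete inhibition of growth.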
Legend:
Assay in all cases: NCI-60 cell line screen, 384-well format
OVCAR-4 ovarian = tested on: OVCAR-4 ovarian
M14 melanoma = tested on: M14 melanoma
SK-MEL-28 melanoma = tested on: SK-MEL-28 melanoma
BT-549 breast = tested on: BT-549 breast
SK-OV-3 ovarian = tested on: SK-OV-3 ovarian
T-47D breast = tested on: T-47D breast
OVCAR-8 ovarian = tested on: OVCAR-8 ovarian
UO-31 renal = tested on: UO-31 renal
MDA-MB-231 breast = tested on: MDA-MB-231 breast
SK-MEL-2 melanoma = tested on: SK-MEL-2 melanoma
MALME-3M melanoma = tested on: MALME-3M melanoma
SN12C renal = tested on: SN12C renal
LOX IMVI melanoma = tested on: LOX IMVI melanoma
OVCAR-5 ovarian = tested on: OVCAR-5 ovarian
MDA-MB-468 breast = tested on: MDA-MB-468 breast
HCT-15 colon = tested on: HCT-15 colon
A549 NSCLC = tested on: A549 NSCLC
786-0 renal = tested on: 786-0 renal
PC-3 prostate = tested on: PC-3 prostate
HOP-92 NSCLC = tested on: HOP-92 NSCLC
MOLT-4 leukemia = tested on: MOLT-4 leukemia
NCI-H322M lung = tested on: NCI-H322M lung
EKVX NSCLC = tested on: EKVX NSCLC
MCF7 breast = tested on: MCF7 breast
HT29 colon = tested on: HT29 colon
HOP-62 NSCLC = tested on: HOP-62 NSCLC
U251 glioblastoma = tested on: U251 glioblastoma
OVCAR-3 ovarian = tested on: OVCAR-3 ovarian
TK-10 renal = tested on: TK-10 renal
SW-620 colon = tested on: SW-620 colon
DU-145 prostate = tested on: DU-145 prostate
HL-60(TB) leukemia = tested on: HL-60(TB) leukemia
RPMI-8226 leukemia = tested on: RPMI-8226 leukemia
MDA-MB-435 melanoma = tested on: MDA-MB-435 melanoma
NCI-H522 lung = tested on: NCI-H522 lung
ACHN renal = tested on: ACHN renal
HCT-116 colon = tested on: HCT-116 colon
NCI-H226 lung = tested on: NCI-H226 lung
CAKI-1 renal = tested on: CAKI-1 renal
HS 578T breast = tested on: HS 578T breast
NCI/ADR-RES ovarian = tested on: NCI/ADR-RES ovarian
K-562 leukemia = tested on: K-562 leukemia
IGROV1 ovarian = tested on: IGROV1 ovarian
RXF 393 renal = tested on: RXF 393 renal
UACC-62 melanoma = tested on: UACC-62 melanoma
KM12 colon = tested on: KM12 colon
NCI-H23 lung = tested on: NCI-H23 lung
A498 renal = tested on: A498 renal
UACC-257 melanoma = tested on: UACC-257 melanoma

CC/C(=C(\c1ccccc1)c1ccc(OCCN(C)C)cc1)c1ccccc1
GI50 (OVCAR-4 ovarian): 12.9 µM | TGI (OVCAR-4 ovarian): 25.7 µM | GI50 (M14 melanoma): 1.89 µM | TGI (M14 melanoma): 3.51 µM | GI50 (SK-MEL-28 melanoma): 5.35 µM | TGI (SK-MEL-28 melanoma): 16.8 µM | GI50 (BT-549 breast): 10.7 µM | TGI (BT-549 breast): 22.8 µM | GI50 (SK-OV-3 ovarian): 10.6 µM | TGI (SK-OV-3 ovarian): 22.8 µM | GI50 (T-47D breast): 5.64 µM | TGI (T-47D breast): 19.7 µM | GI50 (OVCAR-8 ovarian): 11.5 µM | TGI (OVCAR-8 ovarian): 24 µM | GI50 (UO-31 renal): 14.9 µM | TGI (UO-31 renal): 28.4 µM | GI50 (MDA-MB-231 breast): 11.5 µM | TGI (MDA-MB-231 breast): 24 µM | GI50 (SK-MEL-2 melanoma): 4.1 µM | TGI (SK-MEL-2 melanoma): 15.8 µM | GI50 (MALME-3M melanoma): 1.99 µM | TGI (MALME-3M melanoma): 3.66 µM | GI50 (SN12C renal): 13.6 µM | TGI (SN12C renal): 26.7 µM | GI50 (LOX IMVI melanoma): 4.94 µM | TGI (LOX IMVI melanoma): 17 µM | GI50 (OVCAR-5 ovarian): 8.67 µM | TGI (OVCAR-5 ovarian): 21 µM | GI50 (MDA-MB-468 breast): 4.92 µM | TGI (MDA-MB-468 breast): 16 µM | GI50 (HCT-15 colon): 2.05 µM | TGI (HCT-15 colon): 3.96 µM | GI50 (A549 NSCLC): 10.9 µM | TGI (A549 NSCLC): 23.7 µM | GI50 ([…]-0 renal): 4.92 µM | TGI (786-0 renal): 15.7 µM | GI50 (PC-3 prostate): 4.18 µM | TGI (PC-3 prostate): 13.7 µM | GI50 (HOP-92 NSCLC): 14.7 µM | TGI (HOP-92 NSCLC): 28.1 µM | GI50 (MOLT-4 leukemia): 2.56 µM | TGI (MOLT-4 leukemia): 6 µM | GI50 (NCI-H322M lung): 6.11 µM | TGI (NCI-H322M lung): 18.4 µM | GI50 (EKVX NSCLC): 14.7 µM | TGI (EKVX NSCLC): 28.1 µM | GI50 (MCF7 breast): 1.65 µM | TGI (MCF7 breast): 7.98 µM | GI50 (HT29 colon): 2.2 µM | TGI (HT29 colon): 4.16 µM | GI50 (HOP-62 NSCLC): 12.9 µM | TGI (HOP-62 NSCLC): 25.7 µM | GI50 (U251 glioblastoma): 5.21 µM | TGI (U251 glioblastoma): 16.2 µM | GI50 (OVCAR-3 ovarian): 9.12 µM | TGI (OVCAR-3 ovarian): 21.3 µM | GI50 (TK-10 renal): 12.7 µM | TGI (TK-10 renal): 25.5 µM | GI50 (SW-620 colon): 9.21 µM | TGI (SW-620 colon): 21.6 µM | GI50 (DU-145 prostate): 12.8 µM | TGI (DU-145 prostate): 25.9 µM | GI50 (HL-60(TB) leukemia): 1.93 µM | TGI (HL-60(TB) leukemia): 3.39 µM | GI50 (RPMI-8226 leukemia): 1.94 µM | TGI (RPMI-8226 leukemia): 3.66 µM | GI50 (MDA-MB-435 melanoma): 7.19 µM | TGI (MDA-MB-435 melanoma): 19.5 µM | GI50 (NCI-H522 lung): 11.4 µM | TGI (NCI-H522 lung): 23.7 µM | GI50 (ACHN renal): 16.4 µM | TGI (ACHN renal): 30.3 µM | GI50 (HCT-116 colon): 5.26 µM | TGI (HCT-116 colon): 17.5 µM | GI50 (NCI-H226 lung): 7.96 µM | TGI (NCI-H226 lung): 20.2 µM | GI50 (CAKI-1 renal): 8.23 µM | TGI (CAKI-1 renal): 20.8 µM | GI50 (HS 578T breast): 14 µM | TGI (HS 578T breast): 27.2 µM | GI50 (NCI/ADR-RES ovarian): 12 µM | TGI (NCI/ADR-RES ovarian): 24.6 µM | GI50 (K-562 leukemia): 2.51 µM | TGI (K-562 leukemia): 5.33 µM | GI50 (IGROV1 ovarian): 14.2 µM | TGI (IGROV1 ovarian): 27.4 µM | GI50 (RXF 393 renal): 3.43 µM | TGI (RXF 393 renal): 8.75 µM | GI50 (UACC-62 melanoma): 2.77 µM | TGI (UACC-62 melanoma): 7.86 µM | GI50 (KM12 colon): 3.27 µM | TGI (KM12 colon): 10.7 µM | GI50 (NCI-H23 lung): 10.6 µM | TGI (NCI-H23 lung): 22.6 µM | GI50 (A498 renal): 4.05 µM | TGI (A498 renal): 15 µM | GI50 (UACC-257 melanoma): 1.97 µM | TGI (UACC-257 melanoma): 3.56 µM

Source: PubChem BioAssay (NCI)
